Values of other authors as cited in US20250250278A2, “BRIARANE COMPOUNDS AND THEIR USE” (National Health Research Institutes, priority 2022, published 2025).

Legend:
[1] = test system: inducible nitric oxide synthase (iNOS) mRNA; conditions: LPS-challenged murine macrophages
[2] = test system: cyclooxygenase-2 (COX-2) mRNA; conditions: LPS-challenged murine macrophages
[3] = not given; remark: listed apart in the source

In the case of excavatolide B [ExcB], the “inhibition of mRNA expression of iNOS” value [1] is given as “significantly inhibiting”, the “inhibition of mRNA expression of COX-2” value [2] is given as “significantly inhibiting” and the solubility in water is given as “poor”. The bioavailability [3] was “low”.
